Measured values reported in patent publication US20110144376A1, “DERMATOLOGICAL AGENT” (SHOWA DENKO K.K., priority 2008, published 2011).

What was measured:
[1] = tested on: three dimensional human skin model MEL-300 (normal human skin keratinocytes containing normal human epidermal melanocytes); assay: Inhibitory effects for melanocyte dendrite formation (three dimensional human skin model); type: cell-based; conditions: 0.1 ml of a 30 mmol/l solution, MEL-300 cups, 7 days of incubation, vs 0.2% ethanol control, Scheffe, significance level 5%, n=3 (FIG. 1)
Method: Melanin formation inhibitory effects of the compounds 4 and 5 shown in Table 1 were evaluated using three dimensional human skin model MEL-300 (normal human skin keratinocytes containing normal human epidermal melanocytes). The MEL-300 skin model cups were transferred to a 6-well plate, each well containing 0.9 ml of EPI-100-LLMM maintenance medium, and were pre-incubated at 37° C. and 5% CO2 for 1 hour.
The maintenance medium was suction removed, and 5 ml of the maintenance medium was newly added. Thereafter, 0.1 ml of a 30 mmol/l solution of the compound 4 or 5 was added to the MEL-300 skin model cups, and the resultant were incubated. The controls were given 0.1 ml of a 0.2% ethanol solution.
The maintenance medium and the test substance were replaced every two days, and the incubation was performed for 7 days. After the 7 days of incubation, the cells inside the three dimensional human skin model cup were photographed, and the proportion (%) of the area of melanocytes was calculated by image analysis. Significant difference was tested by a post-hoc test (Scheffe method). The significance level was 5%. […] In this experiment, n=3.

[2] = tested on: three dimensional human skin model MEL-300 (normal human skin keratinocytes containing normal human epidermal melanocytes); assay: Melanin synthesis inhibitory test (three dimensional human skin model); type: cell-based; conditions: 0.1 ml of a 30 mmol/l solution, MEL-300 cups, 14 days of incubation, vs 0.2% ethanol control, Scheffe, significance level 1%, n=3 (FIG. 2)
Method: Melanin formation inhibitory effects of the compounds 4 or 5 shown in Table 1 were evaluated using three dimensional human skin model MEL-300 (normal human skin keratinocytes containing normal human epidermal melanocytes). The MEL-300 skin model cups were transferred to a 6-well plate, each well containing 0.9 ml of EPI-100-LLMM maintenance medium, and were pre-incubated at 37° C. and 5% CO2 for 1 hour.
The maintenance medium was suction removed, and 5 ml of the maintenance medium was newly added. Thereafter, 0.1 ml of a 30 mmol/l solution of the compound 4 or 5 was added to the MEL-300 skin model cups, and the resultant were incubated. The controls were given 0.1 ml of a 0.2% ethanol solution. The positive controls were given 0.1 ml of a 30 mmol/l kojic acid solution.
The maintenance medium and the test substance were replaced every two days, and the incubation was performed for 14 days. […]
After the reaction, the reaction liquid was sufficiently stirred and the incubated skin piece was completely crushed. […] The supernatant was analyzed to determine the absorbance at 405 nm. A linear calibration curve was prepared based on the absorbances of melanin solutions of known concentrations that had been treated similarly. The melanin contents in the incubated skin pieces were thus determined. […]

[3] = tested on: C3H mice; assay: Accelerating effects for mouse body hair growth; type: in vivo; conditions: male C3H/HeN mice, shaved dorsal region, 0.1 ml of a 50 μmol/g ointment once a day, Day 18, vs coating stimulation only, Scheffe, significance level 5%, n=6 (FIG. 3)
Method: Male C3H/HeN that were seven weeks old in a telogen hair cycle were used.
The dorsal region of the mice was shaved with an electrical hair clipper (0.05 mm blades) and an electrical shaver. From the next day, 0.1 ml of a 50 μmol/g ointment of the compound 4 or 5 was coated on the shaved regions once a day using a bacteria spreader. The controls were given only coating stimulation with a bacteria spreader.
The dorsal region of the mice on Day 18 after the initiation of coating was photographed. The proportion of the area of the region where hair had regrown relative to the total area of the shaved region was calculated by image analysis. The value obtained thereby indicated the hair regrowth rate (%). Significant difference was tested by a post-hoc test (Scheffe method). The significance level was 5%.
In this experiment, n=6 for the test substances and n=7 for the controls.

[4] = background art statement; cited from earlier work

COc1c(OC(=O)CN(C)C)c(C)c(CC=C(C)CCC=C(C)CCC=C(C)CCC=C(C)CCC=C(C)CCC=C(C)CCC=C(C)CCC=C(C)CCC=C(C)CCC=C(C)C)c(OC(=O)CN(C)C)c1OC.Cl [Compound 4, 2,3-dimethoxy-5-methyl-6-decaisoprenylbenzene 1,4-bis-N,N-dimethyl glycinate hydrochloride]
formation of melanocyte dendrites (proportion (%) of the area of melanocytes by image analysis) [1]: significantly inhibited
melanin production (melanin contents in the incubated skin pieces, absorbance at 405 nm) [2]: significantly decreased
hair regrowth rate (%) [3]: significantly increased

COc1c(O)c(CC=C(C)CCC=C(C)CCC=C(C)CCC=C(C)CCC=C(C)CCC=C(C)CCC=C(C)CCC=C(C)CCC=C(C)CCC=C(C)C)c(C)c(OC(=O)CN(C)C)c1OC.Cl [Compound 5, 2,3-dimethoxy-5-methyl-6-decaisoprenyl-1-hydroxybenzene 4-N,N-dimethyl glycinate hydrochloride]
formation of melanocyte dendrites (proportion (%) of the area of melanocytes by image analysis) [1]: significantly inhibited
melanin production (melanin contents in the incubated skin pieces, absorbance at 405 nm) [2]: significantly decreased
hair regrowth rate (%) [3]: significantly increased

COC1=C(OC)C(=O)C(CC=C(C)CCC=C(C)CCC=C(C)CCC=C(C)CCC=C(C)CCC=C(C)CCC=C(C)CCC=C(C)CCC=C(C)CCC=C(C)C)=C(C)C1=O [ubiquinone-10, 2,3-dimethoxy-5-methyl-6-decaisoprenyl-1,4-benzoquinone]
solubility in water [4]: completely insoluble in water
